Results on 16 molecules are retold here after paper PMC7435983, “Galantamine-Curcumin Hybrids as Dual-Site Binding Acetylcholinesterase Inhibitors” (Molecules, 2020).

Data set [1] has as its system Neuro-2A cells. The experiment in a line: Neurotoxicity test, MTT-dye reduction assay. The format is cell-based, Murine. The settings on record: Mus musculus, N2a, 72-h incubation. On the procedure: The neurotoxicity of the GAL-CU hybrids was tested on Neuro-2A cells, as described in Materials and methods. […] Only five of the hybrids were less toxic than CU. One of them, compound 8b, is among the best-scored compounds; two of them, compounds 4e and 4f, are from the middle GoldScore range; and two of them, compounds 4a and 4b, belong to the low GoldScore range.
Murine neuroblastoma Neuro-2A cells (German collection DSMZ, Braunschweig, Germany) were cultivated under standard conditions: complete medium (90% DMEM, 10% heat-inactivated FBS, and non-essential amino acids); 37 °C and 5% CO2 in fully humidified atmosphere. The cell line was kept in the logarithmic growth phase by splitting 1:4 once a week using trypsin/EDTA. About 30% of the cells grew like neuronal cells. For the experimental evaluation of the cytotoxicity Neuro-2A, cells were plated in 96-well flat-bottomed cell culture plates at the recommended density of 1 × 10^6 cells/25cm^2. After 24 h, the cells were treated with various concentrations of the investigational compounds, and after 72-h incubation, an MTT-dye reduction assay was performed. Briefly, at the end of incubation, an MTT stock solution (10mg/mL in PBS) was added (0.01 mL/well). Plates were further incubated at 37 °C for 4 h. Next, the formazan crystals were dissolved by the addition of 0.110 mL/well 5% formic acid in 2-propanol (v/v). Absorption was measured at 580nm wavelength on an automated ELISA reader Labexim LMR1. At least six wells per concentration were used, and data were processed using the GraphPad Prism 5.0 software 2.0 (San Diego, CA, USA).

Data set [2] deals with eeAChE (Electrophorus electricus AChE) (Electrophorus electricus, UniProt O42275). In words: biochemical. As for the experimental part:
As the docking studies were performed on rhAChE, while for the in vitro measurements was used AChE from electric eel (eeAChE), it was reasonably to question their relevance.
AChE activity was assayed as described by Ellman et al., with some modifications. […] The mixtures were incubated for 30 min at room temperature before the addition of 30 μL of the substrate solution (15 μL […], 15 μL 0.6 mM ATCI in buffer, pH 7.6).

Data set [3] concerns Neuro-2A cells. As to conditions: cited from earlier work.
For data set [4] the following is noted: cited from earlier work.
Data set [5] in a line: Prediction of PK parameters by QSPR models. From the text:
The key PK parameters were predicted by quantitative […] (QSPRs) models derived previously. Three PK parameters were modelled: the steady state volume of distribution (VD^ss), free fraction of drug in plasma (fu) and unbound clearance (CLu). […]

Read-outs that look alike come from different tables or passages of the source. Marks after values point to notes of the source that are not given here.

One may read the IC50 as the concentration needed to halve the response being measured. A word on the half-life: it is how long it takes for the measured level to halve.

eeAChE (Electrophorus electricus AChE), sequence (O42275 24-633): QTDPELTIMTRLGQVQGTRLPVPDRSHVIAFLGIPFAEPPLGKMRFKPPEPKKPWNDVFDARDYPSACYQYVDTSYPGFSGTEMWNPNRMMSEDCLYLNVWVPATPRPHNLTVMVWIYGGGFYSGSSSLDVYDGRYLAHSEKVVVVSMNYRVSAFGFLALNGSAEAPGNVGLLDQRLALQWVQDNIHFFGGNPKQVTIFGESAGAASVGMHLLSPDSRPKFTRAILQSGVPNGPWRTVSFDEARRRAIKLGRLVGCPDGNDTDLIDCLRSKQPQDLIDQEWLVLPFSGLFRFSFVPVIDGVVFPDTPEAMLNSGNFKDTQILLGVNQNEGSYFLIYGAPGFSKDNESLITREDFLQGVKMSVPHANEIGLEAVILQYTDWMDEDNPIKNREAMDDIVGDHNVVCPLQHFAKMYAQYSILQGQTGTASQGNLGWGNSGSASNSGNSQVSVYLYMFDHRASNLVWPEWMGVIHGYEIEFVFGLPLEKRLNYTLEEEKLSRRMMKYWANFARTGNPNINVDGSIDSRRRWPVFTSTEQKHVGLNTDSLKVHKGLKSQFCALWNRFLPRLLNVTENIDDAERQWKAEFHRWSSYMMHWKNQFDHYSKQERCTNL

The molecule `COc1ccc2c3c1O[C@H]1C[C@@H](O)C=C[C@@]31CCN(Cc1cccc(C(=O)/C=C/c3cccc(C)c3)c1)C2` [8g] displayed a half-maximal inhibitory concentration (IC50) with Neuro-2A cells [1] of 17.8 µM. `COc1ccc2c3c1O[C@H]1C[C@@H](O)C=C[C@@]31CCN(Cc1cccc(C(=O)/C=C/c3ccc(C)c(C)c3)c1)C2` [8h] returned an IC50 in the data set on Neuro-2A cells [1] of 25 µM. Consider `COc1ccc(/C=C/C(=O)CCCCN2CC[C@@]34C=C[C@H](O)C[C@@H]3Oc3c(OC)ccc(c34)C2)cc1` [4b], for which, in data set [2], half-maximal inhibition (IC50) required 0.02 µM and the “Times More Active Than GAL” value stood at 186. This molecule also showed a half-maximal inhibitory concentration (IC50) in the data set on Neuro-2A cells [1] of 52.5 µM.

Take `COc1ccc2c3c1O[C@H]1C[C@@H](O)C=C[C@@]31CCN(CCCCC(=O)/C=C/c1ccc(C)cc1)C2` [4f]: in data set [2], the half-inhibitory concentration (IC50) is 0.033 µM and the “Times More Active Than GAL” value was 110. Besides, the IC50 with Neuro-2A cells [1] was 34.4 µM.

Consider `COc1ccc2c3c1O[C@H]1C[C@@H](O)C=C[C@@]31CCN(CCCCC(=O)/C=C/c1ccc3c(c1)OCO3)C2` [4e], for which, in data set [2], the half-inhibitory concentration (IC50) came out at 0.036 µM and the “Times More Active Than GAL” value is 98. In addition, the IC50 with Neuro-2A cells [1] turned out to be 42.9 µM. On to `COc1ccc(C(=O)/C=C/c2cccc(CN3CC[C@@]45C=C[C@H](O)C[C@@H]4Oc4c(OC)ccc(c45)C3)c2)cc1` [6b], for which it took 7.91 µM to reach half-maximal inhibition with Neuro-2A cells [1] (IC50).

In turn, `COc1cc(/C=C/C(=O)CC(=O)/C=C/c2ccc(O)c(OC)c2)ccc1O` [CU, (1E,6E)-1,7-Bis(4-hydroxy-3-methoxyphenyl)hepta-1,6-diene-3,5-dione, reference compound] registered a 50% inhibitory concentration (IC50) in the data set on Neuro-2A cells [1] of 26.3 µM. The same measure, in the same setting: the result for `COc1ccc2c3c1O[C@H]1C[C@@H](O)C=C[C@@]31CCN(CCCCC(=O)/C=C/c1cccc(C)c1)C2` [4g] reads 23.7 µM. In the case of `COc1ccc2c3c1O[C@H]1C[C@@H](O)C=C[C@@]31CCN(CCCCC(=O)/C=C/c1ccccc1)C2` [4a], the IC50 in data set [2] was found to be 0.046 µM; in the data set on Neuro-2A cells [1], 30.7 µM. Further, the “Times More Active Than GAL” value in data set [2] worked out at 75. On to `COc1ccc(/C=C/C(=O)c2cccc(CN3CC[C@@]45C=C[C@H](O)C[C@@H]4Oc4c(OC)ccc(c45)C3)c2)cc1` [8b], for which, in data set [2], the IC50 was 0.086 µM and the “Times More Active Than GAL” value is on record as 41. The molecule further showed an IC50 in the data set with Neuro-2A cells [1] of 28.9 µM.

As for `COc1cccc(/C=C/C(=O)CCCCN2CC[C@@]34C=C[C@H](O)C[C@@H]3Oc3c(OC)ccc(c34)C2)c1` [4c], in the data set on Neuro-2A cells [1], the midpoint of inhibition, the IC50, lay at 24.1 µM. With `COc1ccc2c3c1O[C@H]1C[C@@H](O)C=C[C@@]31CCN(Cc1cccc(/C=C/C(=O)c3ccccc3)c1)C2` [6a], the IC50 in the data set with Neuro-2A cells [1] amounted to 12.1 µM. Turning to `COc1ccc2c3c1O[C@H]1C[C@@H](O)C=C[C@@]31CCN(CCCCC(=O)/C=C/c1ccc(C)c(C)c1)C2` [4h], in the data set on Neuro-2A cells [1], inhibition was half-maximal at 21.9 µM (IC50). Consider `COc1cccc(/C=C/C(=O)c2cccc(CN3CC[C@@]45C=C[C@H](O)C[C@@H]4Oc4c(OC)ccc(c45)C3)c2)c1` [8c], for which the half-inhibitory concentration (IC50) in the data set with Neuro-2A cells [1] is 25.6 µM. `COc1ccc2c3c1O[C@H]1C[C@@H](O)C=C[C@@]31CCN(C)C2` [GAL, Galantamine]: the half-maximal inhibitory concentration (IC50) in the data set on Neuro-2A cells [3] was above 50 µM. The VDss in data set [4] was 2.30 ^a L/kg. Also, the fu in data set [4] (free fraction of drug in plasma) is given as 0.83 ^a. Besides, the CL in data set [4] (total clearance) is recorded as 0.336 ^a L/h/kg. Further, the half-life in data set [5] was 4.74 h. With `COc1ccc2c3c1O[C@H]1C[C@@H](O)C=C[C@@]31CCN(Cc1cccc(C(=O)/C=C/c3ccc(C)cc3)c1)C2` [8f], in the data set on Neuro-2A cells [1], half-maximal inhibition (IC50) was put at 24.3 µM.
